Laboratory results from patent US10054581B1, “Inhibitors of notch signaling pathway and use thereof in treatment of cancers” (Ecole Polytechnique Federale de Lausanne (EPFL), priority 2011, dated 2018).
“Also recorded” adds a separate entry of the source.

Tests used:
[1] = tested on: HCC1187 human breast cancer cell line; assay: Alamar blue proliferation assay, HCC1187; format: cell-based; conditions: 6 days
Protocol: FIGS. 5A-5E show 6-(4-Tert-Butylphenoxy)Pyridin-3-Amine (I3) blocks NICD dependent growth of human cancer cells. […] Western blot analyses were carried out for Hes1 protein using Hes1 specific antibodies. […] Growth kinetics of the parental cell line was followed over 5 days using Alamar blue readout. […] This mutation renders this cell line insensitive to γ-secretase inhibitor treatment. […] The cells were treated with DMSO, γ-secretase inhibitor DAPT and I3 for 6 days. Alamar blue readout was taken at day 0, day 2, day 4 and day 6. Eight replicates were used for each treatment and time point. […] P values were calculated using Student's t.test. *=p value<0.05. ns=not significant.
(§1) Alamarblue® proliferation assays were performed to determine the growth kinetics of Notch inhibitor treated cells. Alamar Blue® consists of a cell permeable substrate resazurin. In metabolically active and proliferating cells, resazurin is converted to resorufin due to an intrinsic reducing power of live cells and produces a red fluorescence. Therefore production of resorufin serves as an indicator of the viability of the cell population.
(§2) Proliferation assays were performed by seeding 5000 cells/well in a 96 well plate. Cells were treated with DMSO or Notch inhibitors for different time intervals. […] Alamarblue readout was taken using Tecan F500 (Tecan) multiplate reader. […]

[2] = tested on: RPMI 8402; assay: Alamar blue proliferation assay, RPMI 8402; format: cell-based, human; conditions: 10 μM, up to 6 days
Protocol: (§3) Human T-ALL cell lines RPMI 8402 and KOPTK1, and pancreatic cancer cell line PANC1 as well as nRas driven melanoma cells were seeded in a 96 well plate and treated with 10 μM concentration of 6-(4-Tert-Butylphenoxy)Pyridin-3-Amine (I3) and DAPT for several days. Their growth inhibitory effects were compared with cells treated with equal amount of DMSO. Using Alamar blue assay, the growth kinetics of RPMI 8402 and KOPTK1 were followed for upto 6 days, while PANC1 and nRas melanoma cells were monitored for 4 days. 6-(4-Tert-Butylphenoxy)Pyridin-3-Amine (I3) treatment of RPMI 8402, KOPTK1. […] Statistical analyses were done using student's t.test. *=p value<0.05. ns=not significant.
as §1, §2

[3] = tested on: KOPTK1; assay: Alamar blue proliferation assay, KOPTK1; format: cell-based, human; conditions: 10 μM, up to 6 days
Protocol: as §3, §1, §2

[4] = tested on: Notch1-intracellular domain (NICD) mediated Notch signalling; assay: NICD transfected HeLa cells, 12×CSL luciferase reporter; format: cell-based; conditions: HeLa cells transfected with NICD; I3 2-40 μM, DAPT 5-40 μM
Description: To measure the Notch signalling activation, CSL/RBP-jk consensus DNA binding sequences were cloned in a head to tail conformation in the pGL4 luciferase vector (Promega), thus named 12×CSL/RBP-jjk luciferase vector. In order to determine the Notch pathway activation in chemical compound screening assay, 12×CSL/RBP-jk consensus DNA binding sequences were cloned into pGL4.26.luciferase vector (Promega). As an internal control for transfection efficiency, SV40 Renilla vector was used (Promega).
NICD-GFP overexpression studies were performed using pEGFP-C1-NICD expression plasmid. The FLAG-CMV2 plasmid expressing MAML1-FLAG was a kind gift from Dr. Lizi Wu, Harvard Medical School, Boston.
The transfected cells were treated with an increasing concentration of I3 and DAPT.

[5] = tested on: Notch signalling via DL4:N1 ligand-receptor pair (Notch1); assay: DL4:N1 coculture assay, Notch driven luciferase reporter; format: cell-based, mouse; conditions: 24 hours; for Notch signalling activation (Notch driven luciferase), concentration dependence: 2, 5 and 10 μM
[6] = tested on: Hes1 in DND41-Parental cells; assay: Hes1 Western blot in DND41-Parental cells; format: cell-based, human; conditions: 24 hours
Protocol: Cells were lysed in RIPA buffer (50 mM Tris.Cl, pH 7.5, 150 mM NaCl, 1% nonidet P-40, 0.5% sodium deoxycholate and 0.1% SDS) for 30 minutes at 4° C. Lysed cells were centrifuged to remove the debris at 14000 rpm at 4° C. Supernatant was transferred to a new eppendorf tube. The protein concentration was determined by Bradford assay using spectrophotometer (Ultrospec 3000 pro). 40 μg of protein were denatured in 1×SDS gel loading buffer (100 mM Tris.Cl, pH 6.8, 200 mM DTT, 4% SDS, 0.2% bromophenol, 20% glycerol) by heating at 99° C. for 5 minutes. Denatured protein samples were stored on ice until loading on to the acrylamide gel. The samples were run on 8% or 10% acrylamide gel in Tris-glycine electrophoresis buffer (25 mM Tris, 250 mM glycine, 0.1% SDS). […]
For immunoblotting, membranes were blocked with 5% milk and incubated overnight with primary antibodies at 4° C. […] Signal was detected with Super Signal West chemiluminescent substrate (Thermo Scientific, catalog number 34077).
6-(4-Tert-Butylphenoxy)Pyridin-3-Amine (I3) can block NICD mediated activation of the Notch pathway (FIGS. 1A-D). […] In addition, these two cell lines were also monitored over several days for anti-proliferative effects of 6-(4-Tert-Butylphenoxy)Pyridin-3-Amine (I3) and DAPT.

[7] = tested on: Notch signalling via DL4:N2 ligand-receptor pair (Notch2); assay: DL4:N2 coculture assay, Notch driven luciferase reporter; format: cell-based; conditions: 10 μM, 24 hours
Description: Next Applicants investigated whether I3 could block pathway activation via other Notch receptors or is it specific to Notch1 signalling. To address this, a coculture assay was used where Notch signalling was activated via DL4:N1 or DL4:N2 ligand receptor pairs.

Compound	proliferation (Alamar blue) [1]	proliferation (Alamar blue) [2]	proliferation (Alamar blue) [3]	NICD mediated Notch signalling activation [4]	Notch signalling activation (Notch driven luciferase), concentration dependence [5]	Hes1 protein [6]	DL4:N2 (Notch2) driven pathway activation [7]	IC50 value, Notch signalling in DL4:N1 coculture assay ([5]; increasing concentration 2-10 μM)
C[C@H](NC(=O)Cc1cc(F)cc(F)c1)C(=O)N[C@H](C(=O)OC(C)(C)C)c1ccccc1 [DAPT, N—[N-(3,5-difluorophenacetyl-Lalanyl)]-(S)-phenylglycine t-butyl ester, reference compound]	did not inhibit proliferation; also recorded: did not alter the growth kinetics	induced a significant proliferation block	induced a significant proliferation block	had no effect on the signalling activation; also recorded: had no effect on Notch signalling activation mediated by NICD	causes a concentration dependent decrease in Notch signalling activation	led to a downregulation of Hes1; also recorded: caused a downregulation of Hes1 in DND41-Parental cells	block Notch1 and Notch2 induced pathway activation	
CC(C)(C)c1ccc(Oc2ccc(N)cn2)cc1 [I3, 6-(4-Tert-Butylphenoxy)Pyridin-3-Amine]	significantly induced a proliferation block; also recorded: caused statistically significant inhibition of cell proliferation	induced a significant proliferation block; also recorded: caused a significant reduction in their growth potential	induced a significant proliferation block; also recorded: caused a significant reduction in their growth potential	could block pathway activation in a dose-dependent manner; also recorded: could also block pathway activation by Notch1-intracellular domain (NICD) and Notch2-intracellular domain (N2-ICD); also recorded: led to an attenuation of the signalling; also recorded: inhibits pathway activation via intracellular domains of Notch1 (NICD) and Notch2 (N2-ICD); also recorded: found to block NICD mediated pathway activation	blocks Notch signalling in a concentration dependent manner; also recorded: causes a concentration dependent decrease in Notch signalling activation	led to a downregulation of Hes1; also recorded: caused a downregulation of Hes1 in DND41-Parental cells	caused an inhibition of Notch signalling via both DL4:N1 and DL4:N2 ligand-receptor pairs; also recorded: block Notch1 and Notch2 induced pathway activation	in the lower μM range
